Data taken from patent publication US8288342B2, “Methods for treating vasomotor symptoms in castrated prostatic cancer patients with low dose cyproterone acetate” (priority 2008, dated 2012).

Key:
[1] = Prior study of 50 mg and 100 mg CPA: discontinuation rates; format: in vivo, human
Protocol: (§1) The results of this study were compared with results from a prior study in which the efficacy of 50 mg and 100 mg of CPA was investigated. Efficacy data for the 50 mg and 100 mg studies showing a reduction in average daily number of moderate to severe hot flashes, and a reduction in average severity of hot flashes is shown in FIGS. 6 and 7, respectively. A comparison of the percent of patients with complete disappearance of all hot flashes at 12 weeks of treatment across studies is shown in Table 10.

hot flashes = details: 37 subjects with bothersome hot flashes; cited from earlier work
[2] = system: hot flashes following surgical or medical castration of prostate cancer patients; assay: Randomized, multicenter, placebo-controlled Phase 2 trial of CPA 5, 15, 25 mg/day: hot flash efficacy; format: in vivo, human; details: for Reduction in average severity of moderate to severe hot flashes compared to placebo (positive) / Reduction in weekly average severity of hot flashes compared to placebo (Table 7 analysis, positive) / LS Mean Change in Weekly Average Severity of All Hot Flashes / LS Mean Change in Weekly Average Severity of Moderate to Severe Hot Flashes: 4-point scale; for Fewer weekly moderate to severe hot flashes compared to placebo (reduction, positive): baseline to end-of-treatment
Excerpt: The inclusion criteria included male (>18 years) prostate cancer patients who have undergone bilateral orchiectomy or have used or are using LHRH analogue drug([…]®, Aberelix®), and have complained of bothersome hot flashes as defined by the occurrence of at least 3 moderate to severe hot flashes per day or 21 per week at baseline. Hot flashes were present for at least 1 month prior to study entry. […] A total of 121 clinical sites in the United States and Canada participated in this Phase 2 study with 77 sites enrolling at least one subject. The overall study duration for each subject was approximately 19 weeks, which included a screening period of up to 4 weeks, a one-week placebo run-in period, a 12-week double-blind period, and a follow-up telephone call two weeks after the last dose of study medication. After providing informed consent on the first day of the screening period, all subjects had medical and hot flash history recorded, a physical examination, a chest x-ray and Doppler to assess known thromboembolic risk factors, an ECG to evaluate cardiac risks, and clinical laboratory evaluations. Once all results of tests conducted during the screening period were obtained, subjects who met all of the inclusion criteria and none of the exclusion criteria were eligible to enter the one-week, single-blind, placebo run-in period. […] CPA 5, 15, or 25 mg/day or placebo. After beginning study medication, subjects returned for study visits at weeks 2, 4, 8, and 12. Two weeks after the final treatment visit, a telephone follow-up call was conducted to record and evaluate adverse events (“AE”s) since the last study visit. Each subject received one tablet daily, which was administered orally. All tablets were blinded and identical in appearance. The formulation used in this study was an immediate release product containing 5, 15, or 25 mg of CPA. The CPA tablets are described in Example 1. The dosage form for the CPA used in this study was an identical, blind, modified oval, scored, immediate release oral tablet for each strength, consisting of cyproterone acetate, lactose, microcrystalline cellulose, crospovidone, sodium lauryl sulfate, silicon dioxide, magnesium stearate, and stearic acid. Placebo tablets included the same constituents but without CPA and were identical in appearance to the active tablets. During the single-blind placebo run-in period, subjects received one medication bottle containing a one week+2 day supply (9 tablets total) of single-blind placebo tablets and a copy of the Subject Information Sheet. Subjects were instructed to take one tablet each morning by mouth, preferably with a meal, at approximately the same time each day. Subjects were not made aware that they were receiving placebo. Following randomization at Visit 2, all enrolled and eligible subjects were randomized equally to one of four treatment groups (CPA 5, 15, 25 mg, or placebo) and received the study medication on the same day. At treatment visits 0, 4, and 8 weeks following initiation, each subject received one medication bottle containing a one-month supply+7 (35 tablets total) of double-blind […] tablets and a copy of the Subject Information Sheet. Subjects were instructed to take one tablet each morning by mouth, preferably with a meal, at approximately the same time each day. This study was designed to evaluate three doses of CPA (5 mg, 15 mg, and 25 mg) for the treatment of hot flashes in prostate cancer patients. Observation of a reduction in the frequency and severity of hot flashes was considered a reasonable and reliable indicator of the efficacy of active treatment. The primary measure of efficacy was the change in weekly frequency and weekly average severity of moderate to severe hot flashes from the placebo run-in period to the final week of treatment. […]

[3] = system: post-orchiectomy hot flashes in prostate cancer subjects; details: CPA 300 mg daily, 3 weeks, 12 post-orchiectomy subjects; cited from earlier work
[4] = over 2500 patients, long-term use; men 100 to 200 or more than 200 mg/day; cited from earlier work
[5] = system: hot flashes in castrated prostatic cancer patients; assay: Prior study of 50 mg and 100 mg CPA: hot flash efficacy; format: in vivo, human; details: N 236
Protocol: as §1

[6] = all three treatment groups (5, 15, 25 mg/day)

For CC(=O)O[C@]1(C(C)=O)CC[C@H]2[C@@H]3C=C(Cl)C4=CC(=O)[C@@H]5C[C@@H]5[C@]4(C)[C@H]3CC[C@@]21C [CPA, cyproterone acetate], the “12-week double-blind discontinuation due to Adverse Event, number” value ([1]; CPA 50 mg (N = 246)) was 13, the “12-week double-blind discontinuation rate due to Adverse Event” value ([1]; CPA 50 mg (N = 246)) was “(5.3%)” and the “12-week double-blind discontinuation due to Adverse Event, number” value ([1]; CPA 100 mg (N = 245)) was 24. For the same molecule, the “12-week double-blind discontinuation rate due to Adverse Event” value ([1]; CPA 100 mg (N = 245)) was “(9.8%)”, the “Therapeutic efficacy: reduction in hot flashes” value (hot flashes) was 80% and the “% With Complete Disappearance of All Hot Flashes at 12 Weeks/End-of-Treatment” value ([2]; CPA 5 mg, N 80) was 27.5%. The “Proportion of subjects with total elimination of moderate to severe hot flashes (Yes)” value (“Proportion of subjects … (Yes)” for short) ([2]; CPA 5 mg/day) was 27.27%, the “Proportion of subjects without total elimination of moderate to severe hot flashes (No)” value ([2]; CPA 5 mg/day) was 72.73% and the “Reduction in average frequency of all hot flashes compared to placebo (positive)” value (“Reduction in average frequency” for short) ([2]; CPA 5 mg/day) was 27.73 units. The “Subjects without total elimination of moderate to severe hot flashes (No), number” value ([2]; CPA 5 mg/day) was 56, the “LS Mean Change in Total Weekly Moderate to Severe Hot Flash Frequency” value (shortened to “LS Mean Change in Total Weekly Moderate”) ([2]; CPA 5 mg/day oral, Baseline (Day 0) to End-of-Treatment (Day 84)) was −40.47 and the “Subjects with total elimination of moderate to severe hot flashes (Yes), number” value (“Subjects with total elimination … number” for short) ([2]; CPA 5 mg/day, out of 77) was 21. The “Reduction in average severity of moderate to severe hot flashes compared to placebo (positive)” value (shortened to “Reduction in average severity”) ([2]; CPA 5 mg/day) was 0.86 units, the “Reduction in weekly average severity of hot flashes compared to placebo (Table 7 analysis, positive)” value (“Reduction in weekly average severity” for short) ([2]; CPA 5 mg/day) was 0.60 units and the “Difference from placebo in change of Total Weekly Moderate to Severe Hot Flash Frequency” value ([2]; CPA 5 mg/day, Day 0 to Day 84) was −23.08. For the same molecule, the “Difference from placebo in change of Weekly Average Frequency of All Hot Flashes” value ([2]; CPA 5 mg/day, Day 0 to Day 84) was −27.73, the “Difference from placebo in change of Weekly Average Severity of All Hot Flashes” value ([2]; CPA 5 mg/day, Day 0 to Day 84) was −0.6 and the “Difference from placebo in change of Weekly Average Severity of Moderate to Severe Hot Flashes” value ([2]; CPA 5 mg/day, Day 0 to Day 84) was −0.86. The “LS Mean Change in Weekly Average Frequency of All Hot Flashes” value ([2]; CPA 5 mg/day, Day 0 to Day 84) was −50.67, the “LS Mean Change in Weekly Average Severity of All Hot Flashes” value ([2]; CPA 5 mg/day, Day 0 to Day 84) was −0.76 and the “LS Mean Change in Weekly Average Severity of Moderate to Severe Hot Flashes” value (“LS Mean Change … to Severe Hot Flashes” for short) ([2]; CPA 5 mg/day, Day 0 to Day 84) was −1.06. The “Fewer weekly moderate to severe hot flashes compared to placebo (reduction, positive)” value (“Fewer weekly moderate … (reduction, positive)” for short) ([2]; CPA 5 mg/day) was 23.08, the “% With Complete Disappearance of All Hot Flashes at 12 Weeks/End-of-Treatment” value ([2]; CPA 15 mg, N 96) was 32.3% and the “Proportion of subjects … (Yes)” value ([2]; CPA 15 mg/day) was 32.63%. For the same molecule, the “Proportion of subjects without total elimination of moderate to severe hot flashes (No)” value ([2]; CPA 15 mg/day) was 67.37%, the “Reduction in average frequency” value ([2]; CPA 15 mg/day) was 32.69 units and the “Subjects without total elimination of moderate to severe hot flashes (No), number” value ([2]; CPA 15 mg/day) was 64. The “LS Mean Change in Total Weekly Moderate” value ([2]; CPA 15 mg/day oral, Day 0 to Day 84) was −45.05, the “Subjects with total elimination … number” value ([2]; CPA 15 mg/day, out of 95) was 31 and the “Reduction in average severity” value ([2]; CPA 15 mg/day) was 1.13 units. For the same molecule, the “Reduction in weekly average severity” value ([2]; CPA 15 mg/day) was 0.78 units, the “Difference from placebo in change of Total Weekly Moderate to Severe Hot Flash Frequency” value ([2]; CPA 15 mg/day, Day 0 to Day 84) was −27.66 and the “Difference from placebo in change of Weekly Average Frequency of All Hot Flashes” value ([2]; CPA 15 mg/day, Day 0 to Day 84) was −32.69. For the same molecule, the “Difference from placebo in change of Weekly Average Severity of All Hot Flashes” value ([2]; CPA 15 mg/day, Day 0 to Day 84) was −0.78, the “Difference from placebo in change of Weekly Average Severity of Moderate to Severe Hot Flashes” value ([2]; CPA 15 mg/day, Day 0 to Day 84) was −1.13 and the “LS Mean Change in Weekly Average Frequency of All Hot Flashes” value ([2]; CPA 15 mg/day, Day 0 to Day 84) was −55.63. For the same molecule, the “LS Mean Change in Weekly Average Severity of All Hot Flashes” value ([2]; CPA 15 mg/day, Day 0 to Day 84) was −0.94, the “LS Mean Change … to Severe Hot Flashes” value ([2]; CPA 15 mg/day, Day 0 to Day 84) was −1.33 and the “Fewer weekly moderate … (reduction, positive)” value ([2]; CPA 15 mg/day) was 27.66. The “% With Complete Disappearance of All Hot Flashes at 12 Weeks/End-of-Treatment” value ([2]; CPA 25 mg, N 86) was 36.1%, the “Proportion of subjects … (Yes)” value ([2]; CPA 25 mg/day) was 36.05% and the “Proportion of subjects without total elimination of moderate to severe hot flashes (No)” value ([2]; CPA 25 mg/day) was 63.95%. The “Reduction in average frequency” value ([2]; CPA 25 mg/day) was 33.93 units, the “Subjects without total elimination of moderate to severe hot flashes (No), number” value ([2]; CPA 25 mg/day) was 55 and the “LS Mean Change in Total Weekly Moderate” value ([2]; CPA 25 mg/day oral, Day 0 to Day 84) was −46.14. For the same molecule, the “Subjects with total elimination … number” value ([2]; CPA 25 mg/day, out of 86) was 31, the “Reduction in average severity” value ([2]; CPA 25 mg/day) was 0.94 units and the “Reduction in weekly average severity” value ([2]; CPA 25 mg/day) was 0.77 units. The “Difference from placebo in change of Total Weekly Moderate to Severe Hot Flash Frequency” value ([2]; CPA 25 mg/day, Day 0 to Day 84) was −28.75, the “Difference from placebo in change of Weekly Average Frequency of All Hot Flashes” value ([2]; CPA 25 mg/day, Day 0 to Day 84) was −33.93 and the “Difference from placebo in change of Weekly Average Severity of All Hot Flashes” value ([2]; CPA 25 mg/day, Day 0 to Day 84) was −0.77. For the same molecule, the “Difference from placebo in change of Weekly Average Severity of Moderate to Severe Hot Flashes” value ([2]; CPA 25 mg/day, Day 0 to Day 84) was −0.94, the “LS Mean Change in Weekly Average Frequency of All Hot Flashes” value ([2]; CPA 25 mg/day, Day 0 to Day 84) was −56.87 and the “LS Mean Change in Weekly Average Severity of All Hot Flashes” value ([2]; CPA 25 mg/day, Day 0 to Day 84) was −0.93. For the same molecule, the “LS Mean Change … to Severe Hot Flashes” value ([2]; CPA 25 mg/day, Day 0 to Day 84) was −1.14, the “Fewer weekly moderate … (reduction, positive)” value ([2]; CPA 25 mg/day) was 28.75 and the “Treating all hot flashes, including mild, moderate, and severe” value ([2]; all three doses (5, 15, 25 mg/day)) was “effective”. For the same molecule, the “Total weekly frequency of moderate to severe hot flashes over placebo” value [2, 6] was “statistically significant reduction”, the “Weekly average frequency of all hot flashes over placebo” value [2, 6] was “statistically significant reduction” and the “Weekly average severity of all hot flashes over placebo” value [2, 6] was “statistically significant reduction”. For the same molecule, the “Weekly average severity of moderate to severe hot flashes over placebo” value [2, 6] was “statistically significant reduction”, the “Frequency of hot flashes” value [3] was “significantly reduced” and the “Correlation between duration of CPA treatment and prevalence of liver enzyme elevations” value [4] was “No correlation was found”. The “% With Complete Disappearance of All Hot Flashes at 12 Weeks/End-of-Treatment” value ([5]; CPA 50 mg) was 38.5% and the “% With Complete Disappearance of All Hot Flashes at 12 Weeks/End-of-Treatment” value ([5]; CPA 100 mg) was 46.0%.
